US20170232083A1, “METHODS OF DIAGNOSIS AND TREATMENT OF CELIAC DISEASE IN CHILDREN” (priority 2014, published 2017)

Tested on: PBMC (polyclonal gluten-specific T cells) of paediatric and adult CD patients
Test: IFN-γ ELISpot of PBMC after 3 day oral wheat challenge (SFU, % of maximal peptide response, dominance scores, EC50; Examples 5-6)
Format: cell-based, human
Conditions: for IFN-γ ELISpot response: after oral wheat challenge; for Cross-reactive T cell response: following wheat challenge
[1] = patient G, 11-17 yrs, cut-off 10 SFU
[2] = patient H, 11-17 yrs, cut-off 10 SFU
[3] = patient ID not given, 11-17 yrs, cut-off 10 SFU
[4] = patient ID not given, max peptide 95 SFU
[5] = patient P, 11-17 yrs, cut-off 21.6 SFU
[6] = patient Q, 11-17 yrs, cut-off 10 SFU
[7] = patient U, H, 11-17 yrs, cut-off 10 SFU
[8] = patient V, 6-10 yrs, cut-off 10 SFU
[9] = patient Y, 6-10 yrs, cut-off 10 SFU
[10] = patient eleven, 6-10 yrs, cut-off 10 SFU
[11] = patient four, 3-5yrs, cut-off 10 SFU
[12] = patient four, max peptide 44 SFU
[13] = patient seven, 6-10 yrs, cut-off 10.5 SFU
[14] = patient seven, max peptide 27 SFU
[15] = patient ten, 3-5yrs, cut-off 10 SFU
[16] = patient three, 6-10 yrs, cut-off 10.5 SFU
[17] = patient two, 3-5yrs, cut-off 10 SFU
[18] = patient two, max peptide 60 SFU
[19] = patient A, 11-17 yrs, cut-off 10 SFU
[20] = patient E, H, 11-17 yrs, cut-off 10 SFU
[21] = patient F, 11-17 yrs, cut-off 10 SFU
[22] = patient H (HLA-DQ2.5 homozygote), 3-5yrs, cut-off 10 SFU
[23] = patient N, 3-5yrs, cut-off 10 SFU
[24] = patient twelve, 11-17 yrs, cut-off 10 SFU

FLQPEQPFPEQPEQPYPEQPEQPFPQ
IFN-γ ELISpot response [1]: 1 SFU
IFN-γ ELISpot response [2]: 6 SFU
IFN-γ ELISpot response [3]: 23 SFU
Significant response as percentage of maximal peptide SFU [4]: ′′ (21-40% = ′′)
Significant response as percentage of maximal peptide SFU (patient J, max peptide 196 SFU): ′ (11-20% = ′)
Significant response as percentage of maximal peptide SFU (patient K, max peptide 53 SFU): ′′ (21-40% = ′′)
IFN-γ ELISpot response [5]: 11 SFU
IFN-γ ELISpot response [6]: 18 SFU
Significant response as percentage of maximal peptide SFU (patient Q, max peptide 97 SFU): ′ (11-20% = ′)
IFN-γ ELISpot response [7]: 26 SFU
Significant response as percentage of maximal peptide SFU (patient U, max peptide 81 SFU): ′′ (21-40% = ′′)
IFN-γ ELISpot response [8]: 12 SFU
Significant response as percentage of maximal peptide SFU (patient V, max peptide 35 SFU): ′′ (21-40% = ′′)
IFN-γ ELISpot response [9]: 6 SFU
IFN-γ ELISpot response [10]: 15 SFU
Significant response as percentage of maximal peptide SFU (patient eleven, max peptide 57 SFU): ′′ (21-40% = ′′)
IFN-γ ELISpot response [11]: 10 SFU
Significant response as percentage of maximal peptide SFU [12]: ′′ (21-40% = ′′)
IFN-γ ELISpot response [13]: 20 SFU
Significant response as percentage of maximal peptide SFU [14]: + (>70% = +)
IFN-γ ELISpot response [15]: 3 SFU
IFN-γ ELISpot response [16]: 22 SFU
IFN-γ ELISpot response [17]: 12 SFU
Significant response as percentage of maximal peptide SFU [18]: ′ (11-20% = ′)

FPQPEQEFPQPQQ
IFN-γ ELISpot response [19]: 6 SFU
IFN-γ ELISpot response [20]: 49 SFU
Significant response as percentage of maximal peptide SFU (patient E, max peptide 224 SFU): ′′ (21-40% = ′′)
IFN-γ ELISpot response [21]: 21 SFU
Significant response as percentage of maximal peptide SFU (patient F, max peptide 178 SFU): ′ (11-20% = ′)
IFN-γ ELISpot response [1]: 4 SFU
IFN-γ ELISpot response [22]: 13 SFU
IFN-γ ELISpot response [2]: 9 SFU
IFN-γ ELISpot response [3]: 26 SFU
Significant response as percentage of maximal peptide SFU [4]: ′′ (21-40% = ′′)
Significant response as percentage of maximal peptide SFU (patient II, max peptide 15 SFU): + (>70% = +)
Significant response as percentage of maximal peptide SFU (patient J, max peptide 196 SFU): + (>70% = +)
Significant response as percentage of maximal peptide SFU (patient K, max peptide 53 SFU): ′′′ (41-70% = ′′′)
Significant response as percentage of maximal peptide SFU (patient M, max peptide 48 SFU): ′′ (21-40% = ′′)
IFN-γ ELISpot response [23]: 3 SFU
IFN-γ ELISpot response [5]: 11 SFU
IFN-γ ELISpot response [6]: 27 SFU
Significant response as percentage of maximal peptide SFU (patient Q, max peptide 97 SFU): ′′ (21-40% = ′′)
IFN-γ ELISpot response [7]: 15 SFU
Significant response as percentage of maximal peptide SFU (patient U, max peptide 81 SFU): ′ (11-20% = ′)
IFN-γ ELISpot response [8]: 9 SFU
IFN-γ ELISpot response [9]: 3 SFU
IFN-γ ELISpot response [10]: 1 SFU
Significant response as percentage of maximal peptide SFU (patient five, max peptide 48 SFU): ′′ (21-40% = ′′)
IFN-γ ELISpot response [11]: 10 SFU
Significant response as percentage of maximal peptide SFU [12]: ′′ (21-40% = ′′)
IFN-γ ELISpot response [13]: 11 SFU
Significant response as percentage of maximal peptide SFU [14]: ′′′ (41-70% = ′′′)
IFN-γ ELISpot response [15]: 5 SFU
IFN-γ ELISpot response [16]: 158 SFU
IFN-γ ELISpot response [24]: 7 SFU
IFN-γ ELISpot response [17]: 13 SFU
Significant response as percentage of maximal peptide SFU [18]: ′ (11-20% = ′)

FPQPQQQFPQPQQ
IFN-γ ELISpot response [19]: 2 SFU
IFN-γ ELISpot response [20]: 12 SFU
Significant response as percentage of maximal peptide SFU (patient E, max peptide 224 SFU): (6-10% = ^)
IFN-γ ELISpot response [21]: 4 SFU
IFN-γ ELISpot response [1]: 1 SFU
IFN-γ ELISpot response [22]: 6 SFU
IFN-γ ELISpot response [2]: 5 SFU
IFN-γ ELISpot response [3]: 1 SFU
Significant response as percentage of maximal peptide SFU (patient II, max peptide 15 SFU): + (>70% = +)
IFN-γ ELISpot response [23]: 1 SFU
IFN-γ ELISpot response [5]: 4 SFU
IFN-γ ELISpot response [6]: 10 SFU
Significant response as percentage of maximal peptide SFU (patient Q, max peptide 97 SFU): ′ (11-20% = ′)
IFN-γ ELISpot response [7]: 4 SFU
IFN-γ ELISpot response [8]: 2 SFU
IFN-γ ELISpot response [9]: 6 SFU
IFN-γ ELISpot response [10]: 1 SFU
IFN-γ ELISpot response [11]: 5 SFU
IFN-γ ELISpot response [13]: 2 SFU
IFN-γ ELISpot response [15]: 4 SFU
IFN-γ ELISpot response [16]: 1 SFU
IFN-γ ELISpot response [24]: 5 SFU
IFN-γ ELISpot response [17]: 0 SFU

FPQTEQPEQPFPQP
Cross-reactive T cell response (subject A, 11-17yrs): 1 SFU
Cross-reactive T cell response (subject D, 11-17yrs): 0 SFU
Cross-reactive T cell response (subject E, 11-17yrs): 3 SFU
Cross-reactive T cell response (subject F, 11-17yrs): 2 SFU
Cross-reactive T cell response (subject G, 11-17yrs): 2 SFU
Cross-reactive T cell response (subject H): 1 SFU
Cross-reactive T cell response (subject I (3-5yrs/6-10yrs part)): 0 SFU
Significant response as a percentage of maximal peptide SFU (subject J): ′′ (21-40% = ′′)
Cross-reactive T cell response (subject J (3-5yrs/6-10yrs part)): 67 SFU
Significant response as a percentage of maximal peptide SFU (subject K): ′′ (21-40% = ′′)
Cross-reactive T cell response (subject K (3-5yrs/6-10yrs part)): 19 SFU
Cross-reactive T cell response (subject P, 11-17yrs): 3 SFU
Significant response as a percentage of maximal peptide SFU (subject Q, 11-17yrs): ′ (11-20% = ′)
Cross-reactive T cell response (subject Q, 11-17yrs): 10 SFU
Cross-reactive T cell response (subject T, 11-17yrs): 7 SFU
Cross-reactive T cell response (subject U, 11-17yrs): 5 SFU
Cross-reactive T cell response (subject V (3-5yrs/6-10yrs part)): 6 SFU
Cross-reactive T cell response (subject W (3-5yrs/6-10yrs part)): 5 SFU
Cross-reactive T cell response (subject Y (3-5yrs/6-10yrs part)): 3 SFU
Cross-reactive T cell response (subject five (3-5yrs/6-10yrs part)): 5 SFU
Cross-reactive T cell response (subject nine, 11-17yrs): 0 SFU
Cross-reactive T cell response (subject seven (3-5yrs/6-10yrs part)): 5 SFU
Cross-reactive T cell response (subject six (3-5yrs/6-10yrs part)): 4 SFU
Significant response as a percentage of maximal peptide SFU (subject ten): + (>70% = +)
Cross-reactive T cell response (subject ten (3-5yrs/6-10yrs part)): 13 SFU
Cross-reactive T cell response (subject two (3-5yrs/6-10yrs part)): 3 SFU

GIIQPQQPAQL
IFN-γ ELISpot response [1]: 0 SFU
IFN-γ ELISpot response [2]: 1 SFU
IFN-γ ELISpot response [3]: 2 SFU
Significant response as percentage of maximal peptide SFU (patient II, max peptide 15 SFU): + (>70% = +)
Significant response as percentage of maximal peptide SFU (patient K, max peptide 53 SFU): ′′ (21-40% = ′′)
IFN-γ ELISpot response [5]: 7 SFU
IFN-γ ELISpot response [6]: 0 SFU
IFN-γ ELISpot response [7]: 4 SFU
IFN-γ ELISpot response [8]: 5 SFU
IFN-γ ELISpot response [9]: 2 SFU
IFN-γ ELISpot response [10]: 1 SFU
IFN-γ ELISpot response [11]: 0 SFU
IFN-γ ELISpot response [13]: 3 SFU
IFN-γ ELISpot response [15]: 5 SFU
IFN-γ ELISpot response [16]: 3 SFU
IFN-γ ELISpot response [17]: 0 SFU

GLERPWQEQPLPPQ
IFN-γ ELISpot response [19]: 4 SFU
IFN-γ ELISpot response [20]: 0 SFU
IFN-γ ELISpot response [21]: 0 SFU
IFN-γ ELISpot response [1]: 0 SFU
IFN-γ ELISpot response [22]: 0 SFU
IFN-γ ELISpot response [2]: 16 SFU
Significant response as percentage of maximal peptide SFU (patient H, max peptide 17 SFU): + (>70% = +)
IFN-γ ELISpot response [3]: 1 SFU
IFN-γ ELISpot response [23]: 0 SFU
IFN-γ ELISpot response [5]: 7 SFU
IFN-γ ELISpot response [6]: 22 SFU
Significant response as percentage of maximal peptide SFU (patient Q, max peptide 97 SFU): ′′ (21-40% = ′′)
IFN-γ ELISpot response [7]: 1 SFU
IFN-γ ELISpot response [8]: 7 SFU
IFN-γ ELISpot response [9]: 9 SFU
IFN-γ ELISpot response [10]: 1 SFU
IFN-γ ELISpot response [11]: 6 SFU
IFN-γ ELISpot response [13]: 11 SFU
Significant response as percentage of maximal peptide SFU [14]: ′′′ (41-70% = ′′′)
IFN-γ ELISpot response [15]: 5 SFU
IFN-γ ELISpot response [16]: 3 SFU
IFN-γ ELISpot response [24]: 2 SFU
IFN-γ ELISpot response [17]: 1 SFU
